Experimental data as given in PubChem BioAssay (NCI).
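Five concentrations, 48 hours, 96-well plates. GI50 = concentration required for 50% inhibition of growth. The concentration for full growth arrest is given as TGI.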

Legend:
Assay in all cases: NCI-60 cell line screen, 48 h
MDA-MB-435 = tested on: MDA-MB-435
IGROV1 ovarian = tested on: IGROV1 ovarian
MCF7 breast = tested on: MCF7 breast
LOX IMVI melanoma = tested on: LOX IMVI melanoma
UACC-62 melanoma = tested on: UACC-62 melanoma
SNB-19 CNS = tested on: SNB-19 CNS
RPMI-8226 leukemia = tested on: RPMI-8226 leukemia
U251 CNS = tested on: U251 CNS
OVCAR-5 ovarian = tested on: OVCAR-5 ovarian
UO-31 renal = tested on: UO-31 renal
HCT-116 colon = tested on: HCT-116 colon
RXF 393 renal = tested on: RXF 393 renal
EKVX NSCLC = tested on: EKVX NSCLC
KM12 colon = tested on: KM12 colon
SK-OV-3 ovarian = tested on: SK-OV-3 ovarian
A549 NSCLC = tested on: A549 NSCLC
SK-MEL-5 melanoma = tested on: SK-MEL-5 melanoma
CCRF-CEM leukemia = tested on: CCRF-CEM leukemia
NCI-H460 lung = tested on: NCI-H460 lung
NCI-H23 lung = tested on: NCI-H23 lung
T-47D breast = tested on: T-47D breast
PC-3 prostate = tested on: PC-3 prostate
DU-145 prostate = tested on: DU-145 prostate
K-562 leukemia = tested on: K-562 leukemia
TK-10 renal = tested on: TK-10 renal
A498 renal = tested on: A498 renal
NCI-H522 lung = tested on: NCI-H522 lung
M14 melanoma = tested on: M14 melanoma
UACC-257 melanoma = tested on: UACC-257 melanoma
HCC-2998 colon = tested on: HCC-2998 colon
NCI/ADR-RES ovarian = tested on: NCI/ADR-RES ovarian
MOLT-4 leukemia = tested on: MOLT-4 leukemia
SF-295 CNS = tested on: SF-295 CNS
HCT-15 colon = tested on: HCT-15 colon
SR leukemia = tested on: SR leukemia
MALME-3M melanoma = tested on: MALME-3M melanoma
MDA-MB-231 breast = tested on: MDA-MB-231 breast
OVCAR-3 ovarian = tested on: OVCAR-3 ovarian
HOP-62 NSCLC = tested on: HOP-62 NSCLC
SK-MEL-28 melanoma = tested on: SK-MEL-28 melanoma
SF-539 CNS = tested on: SF-539 CNS
BT-549 breast = tested on: BT-549 breast
HS 578T breast = tested on: HS 578T breast
ACHN renal = tested on: ACHN renal
786-0 renal = tested on: 786-0 renal
HT29 colon = tested on: HT29 colon
OVCAR-4 ovarian = tested on: OVCAR-4 ovarian
SNB-75 CNS = tested on: SNB-75 CNS
COLO 205 colon = tested on: COLO 205 colon
HL-60(TB) leukemia = tested on: HL-60(TB) leukemia
SF-268 CNS = tested on: SF-268 CNS
SW-620 colon = tested on: SW-620 colon
SK-MEL-2 melanoma = tested on: SK-MEL-2 melanoma
NCI-H226 lung = tested on: NCI-H226 lung
SN12C renal = tested on: SN12C renal
CAKI-1 renal = tested on: CAKI-1 renal
HOP-92 NSCLC = tested on: HOP-92 NSCLC

CC(C)OC(=O)c1cc(NS(=O)(=O)c2ccc3ccccc3c2)cc(C(=O)OC(C)C)c1
GI50 (MDA-MB-435): 23.1 µM | TGI (MDA-MB-435): 73.2 µM | GI50 (IGROV1 ovarian): 35.2 µM | TGI (IGROV1 ovarian): > 100 µM | GI50 (MCF7 breast): 12.3 µM | TGI (MCF7 breast): 45.3 µM | GI50 (LOX IMVI melanoma): 28.5 µM | TGI (LOX IMVI melanoma): > 100 µM | GI50 (UACC-62 melanoma): 17 µM | TGI (UACC-62 melanoma): 48.6 µM | GI50 (SNB-19 CNS): 33.5 µM | TGI (SNB-19 CNS): > 100 µM | GI50 (RPMI-8226 leukemia): 15.6 µM | TGI (RPMI-8226 leukemia): 45.3 µM | GI50 (U251 CNS): 31.7 µM | TGI (U251 CNS): > 100 µM | GI50 (OVCAR-5 ovarian): 18.3 µM | TGI (OVCAR-5 ovarian): 48.8 µM | GI50 (UO-31 renal): 26.4 µM | TGI (UO-31 renal): > 100 µM | GI50 (HCT-116 colon): 24.2 µM | TGI (HCT-116 colon): > 100 µM | GI50 (RXF 393 renal): 20.9 µM | TGI (RXF 393 renal): > 100 µM | GI50 (EKVX NSCLC): 25 µM | TGI (EKVX NSCLC): 89.2 µM | GI50 (KM12 colon): 32.3 µM | TGI (KM12 colon): > 100 µM | GI50 (SK-OV-3 ovarian): 32.3 µM | TGI (SK-OV-3 ovarian): > 100 µM | GI50 (A549 NSCLC): 27.1 µM | TGI (A549 NSCLC): 93.5 µM | GI50 (SK-MEL-5 melanoma): 16 µM | TGI (SK-MEL-5 melanoma): 31.8 µM | GI50 (CCRF-CEM leukemia): 22.5 µM | TGI (CCRF-CEM leukemia): 88.9 µM | GI50 (NCI-H460 lung): 13.4 µM | TGI (NCI-H460 lung): 38.8 µM | GI50 (NCI-H23 lung): 21.9 µM | TGI (NCI-H23 lung): 73.9 µM | GI50 (T-47D breast): 17.6 µM | TGI (T-47D breast): 58.5 µM | GI50 (PC-3 prostate): 23.8 µM | TGI (PC-3 prostate): 91.8 µM | GI50 (DU-145 prostate): 28.8 µM | TGI (DU-145 prostate): > 100 µM | GI50 (K-562 leukemia): 29.6 µM | TGI (K-562 leukemia): > 100 µM | GI50 (TK-10 renal): 45.2 µM | TGI (TK-10 renal): > 100 µM | GI50 (A498 renal): 17.2 µM | TGI (A498 renal): 54.9 µM | GI50 (NCI-H522 lung): 18.3 µM | TGI (NCI-H522 lung): 45.9 µM | GI50 (M14 melanoma): 17.6 µM | TGI (M14 melanoma): 46.8 µM | GI50 (UACC-257 melanoma): 30.5 µM | TGI (UACC-257 melanoma): > 100 µM | GI50 (HCC-2998 colon): 17.3 µM | TGI (HCC-2998 colon): 47.2 µM | GI50 (NCI/ADR-RES ovarian): 16.3 µM | TGI (NCI/ADR-RES ovarian): 56.6 µM | GI50 (MOLT-4 leukemia): 22 µM | TGI (MOLT-4 leukemia): 63.4 µM | GI50 (SF-295 CNS): 22.2 µM | TGI (SF-295 CNS): 79.7 µM | GI50 (HCT-15 colon): 28.4 µM | TGI (HCT-15 colon): > 100 µM | GI50 (SR leukemia): 24.5 µM | TGI (SR leukemia): 76.2 µM | GI50 (MALME-3M melanoma): 32.7 µM | TGI (MALME-3M melanoma): > 100 µM | GI50 (MDA-MB-231 breast): 21.4 µM | TGI (MDA-MB-231 breast): 76.5 µM | GI50 (OVCAR-3 ovarian): 24 µM | TGI (OVCAR-3 ovarian): 94.7 µM | GI50 (HOP-62 NSCLC): 33.1 µM | TGI (HOP-62 NSCLC): > 100 µM | GI50 (SK-MEL-28 melanoma): 24.6 µM | TGI (SK-MEL-28 melanoma): 73.2 µM | GI50 (SF-539 CNS): 24.6 µM | TGI (SF-539 CNS): 61.3 µM | GI50 (BT-549 breast): 17.2 µM | TGI (BT-549 breast): 43.2 µM | GI50 (HS 578T breast): 20.7 µM | TGI (HS 578T breast): 49.8 µM | GI50 (ACHN renal): 33.1 µM | TGI (ACHN renal): > 100 µM | GI50 (786-0 renal): 30.9 µM | TGI (786-0 renal): > 100 µM | GI50 (HT29 colon): 34.1 µM | TGI (HT29 colon): > 100 µM | GI50 (OVCAR-4 ovarian): 22 µM | TGI (OVCAR-4 ovarian): 82.3 µM | GI50 (SNB-75 CNS): 23.9 µM | TGI (SNB-75 CNS): 66.2 µM | GI50 (COLO 205 colon): 16 µM | TGI (COLO 205 colon): 34.3 µM | GI50 (HL-60(TB) leukemia): 24.2 µM | TGI (HL-60(TB) leukemia): 65.8 µM | GI50 (SF-268 CNS): 15.8 µM | TGI (SF-268 CNS): 57.3 µM | GI50 (SW-620 colon): 30.3 µM | TGI (SW-620 colon): > 100 µM | GI50 (SK-MEL-2 melanoma): 26.2 µM | TGI (SK-MEL-2 melanoma): 73.6 µM | GI50 (NCI-H226 lung): 26.8 µM | TGI (NCI-H226 lung): > 100 µM | GI50 (SN12C renal): 29.9 µM | TGI (SN12C renal): > 100 µM | GI50 (CAKI-1 renal): 36.4 µM | TGI (CAKI-1 renal): > 100 µM | GI50 (HOP-92 NSCLC): 24.9 µM | TGI (HOP-92 NSCLC): 64.9 µM
